Where two headings read alike, the source gives them in different places.
Test system: HCV 1b genotype
Assay: HCV Replicon assay (HCV 1b genotype)
Type: cell-based
Settings: Hepatitis C virus, HCV 1b genotype replicon
Protocol: An HCV Replicon assay was utilized in the present disclosure, and was prepared, conducted and validated as described in commonly owned PCT/US2006/022197 and in O'Boyle et al., Antimicrob. Agents Chemother., 49(4):1346-1353 (April 2005). Assay methods incorporating luciferase reporters have also been used as described (Apath.com).
HCV-neo replicon cells and replicon cells containing resistance substitutions in the NS5A region were used to test the currently described family of compounds. The compounds were determined to have differing degrees of reduced inhibitory activity on cells containing mutations vs. the corresponding inhibitory potency against wild-type cells. Thus, the compounds of the present disclosure can be effective in inhibiting the function of the HCV NS5A protein and are understood to be as effective in combinations as previously described in application PCT/US2006/022197 and commonly owned WO 04/014852. It should be understood that the compounds of the present disclosure can inhibit multiple genotypes of HCV. […] In one embodiment, compounds of the present disclosure are inhibitory versus 1a, 1b, 2a, 2b, 3a, 4a, and 5a genotypes. EC50 values against HCV 1b are as follows.

[1] = range class, read-out: EC50-Range
[2] = Effective 50% inhibitory concentration, read-out: EC50

SMILES | EC50 [1] [nM] | EC50 [2] [nM]
COC(=O)N[C@H](C(=O)N1C[C@@H](C)C[C@H]1c1nc(Cl)c(-c2ccc(-c3ccc(-c4[nH]c([C@@H]5C[C@H](C)CN5C(=O)[C@@H](NC(=O)OC)C(C)C)nc4Cl)cc3)cc2)[nH]1)C(C)C [GW8] | 0.001 to 0.01 | –
COC(=O)N[C@H](C(=O)N1C2C[C@@H]2C[C@H]1c1nc(-c2ccc(-c3ccc(-c4nc([C@@H]5CC6C[C@H]6N5C(=O)[C@@H](NC(=O)OC)C5CCOCC5)[nH]c4C#N)cc3)cc2)c[nH]1)C1CCOCC1 (stereo partly shown) [DSTL-12] | 0.01 to 0.1 | –
COC(=O)N[C@H](C(=O)N1[C@@H](C)CC[C@H]1c1nc(-c2ccc(-c3ccc(-c4nc([C@@H]5CC[C@H](C)N5C(=O)[C@@H](NC(=O)OC)C5CCOCC5)[nH]c4F)cc3)cc2)c(F)[nH]1)C1CCOCC1 [DSTL-10] | 0.001 to 0.01 | –
CC[C@H](NC(=O)OC)C(=O)N1[C@@H]2C[C@@H]2C[C@H]1c1ncc(-c2ccc(-c3ccc(-c4[nH]c([C@@H]5C[C@H]6C[C@H]6N5C(=O)[C@H](CC)NC(=O)OC)nc4Cl)cc3)cc2)[nH]1 [Example V1] | 0.001 to 0.01 | –
COC(=O)N[C@H](C(=O)N1[C@@H]2C[C@@H]2C[C@H]1c1nc(-c2ccc(-c3ccc(-c4nc([C@@H]5C[C@H]6C[C@H]6N5C(=O)[C@@H](NC(=O)OC)[C@@H]5CCCOC5)[nH]c4Cl)cc3)cc2)c(Cl)[nH]1)[C@@H]1CCCOC1 [ZY1, dimethyl(S,1S,1′S)-2,2′-((1R,1′R,3S,3′S,5R,5′R)-3,3′-(4,4′-(biphenyl-4,4′-diyl)bis(5-chloro-1H-imidazole-4,2-diyl))bis(2-azabicyclo[3.1.0]hexane-3,2-diyl))bis(2-oxo-1-((S)-tetrahydro-2H-pyran-3-yl)ethane-2,1-diyl)dicarbamate] | 0.001 to 0.01 | –
COC(=O)N[C@H](C(=O)N1[C@@H](C)CC[C@H]1c1nc(-c2ccc(-c3ccc(-c4nc([C@@H]5CC[C@H](C)N5C(=O)[C@@H](NC(=O)OC)C5CCOCC5)[nH]c4F)cc3)cc2)c[nH]1)C1CCOCC1 [DSTL-9] | 0.001 to 0.01 | –
COC(=O)NC(C(=O)N1[C@@H]2C[C@@H]2C[C@H]1c1nc(-c2ccc(-c3ccc(-c4[nH]c([C@@H]5C[C@H]6C[C@H]6N5C(=O)C(NC(=O)OC)[C@H]5C[C@@H](C)O[C@@H](C)C5)nc4Cl)cc3)cc2)c[nH]1)[C@H]1C[C@@H](C)O[C@@H](C)C1 (stereo partly shown) [OL6] | 0.001 to 0.01 | –
COC(=O)N[C@H](C(=O)N1[C@@H](C)CC[C@H]1c1nc(-c2ccc(-c3ccc4c(ccc5[nH]c([C@@H]6CC[C@H](C)N6C(=O)[C@@H](NC(=O)OC)C6CCOCC6)nc54)c3)cc2)c(Cl)[nH]1)C1CCOCC1 [JLR-5] | 0.001 to 0.01 | –
COC(=O)N[C@H](C(=O)N1[C@@H](C)CC[C@H]1c1ncc(-c2ccc(-c3ccc(-c4[nH]c([C@@H]5CC[C@H](C)N5C(=O)[C@@H](NC(=O)OC)C(C)C)nc4Cl)cc3)cc2)[nH]1)C(C)C [GW2] | 0.001 to 0.01 | –
COC(=O)N[C@H](C(=O)N1CCC[C@H]1c1nc(-c2ccc(-c3ccc(-c4nc([C@@H]5CCCN5C(=O)[C@@H](NC(=O)OC)C(C)C)[nH]c4Br)cc3)cc2)c[nH]1)C(C)C [JLR-1] | 0.001 to 0.01 | –
C=CCc1cc([C@@H]2CCCN2C(=O)[C@@H](NC(=O)OC)C2CCOCC2)[nH]c1-c1ccc(-c2ccc(-c3cnc([C@@H]4CCCN4C(=O)[C@@H](NC(=O)OC)C4CCOCC4)[nH]3)cc2)cc1 [OL16] | 0.01 to 0.1 | –
COC(=O)N[C@H](C(=O)N1C[C@@H](C)C[C@H]1c1ncc(-c2ccc(-c3ccc(-c4[nH]c([C@@H]5C[C@H](C)CN5C(=O)[C@@H](NC(=O)OC)C(C)C)nc4Cl)cc3)cc2)[nH]1)C(C)C [GW3] | 0.001 to 0.01 | –
CC[C@H](NC(=O)OC)C(=O)N1[C@@H]2C[C@@H]2C[C@H]1c1nc(Cl)c(-c2ccc(-c3ccc(-c4[nH]c([C@@H]5C[C@H]6C[C@H]6N5C(=O)[C@@H](NC(=O)OC)C5CCOCC5)nc4Cl)cc3)cc2)[nH]1 [Example V9] | 0.001 to 0.01 | 0.0027
CC[C@H](NC(=O)OC)C(=O)N1[C@@H]2C[C@@H]2C[C@H]1c1nc(Cl)c(-c2ccc(-c3ccc(-c4[nH]c([C@@H]5C[C@H]6C[C@H]6N5C(=O)[C@H](CC)NC(=O)OC)nc4Cl)cc3)cc2)[nH]1 [Example V3] | 0.001 to 0.01 | –
COC(=O)N[C@H](C(=O)N1[C@@H]2C[C@@H]2C[C@H]1c1nc(-c2ccc(-c3ccc4c(ccc5[nH]c([C@@H]6C[C@H]7C[C@H]7N6C(=O)[C@@H](NC(=O)OC)C6CCOCC6)nc54)c3)cc2)c(Cl)[nH]1)C1CCOCC1 [DSTL-2] | 0.01 to 0.1 | –
COC(=O)N[C@@H](C(=O)N1[C@@H]2C[C@@H]2C[C@H]1c1nc(-c2ccc(-c3ccc(-c4nc([C@@H]5C[C@H]6C[C@H]6N5C(=O)[C@H](NC(=O)OC)[C@@H]5CCCOC5)[nH]c4Cl)cc3)cc2)c[nH]1)[C@H]1CCCOC1 [ZY5] | 0.001 to 0.01 | –
C=CCc1nc([C@@H]2CCCN2C(=O)[C@@H](NC(=O)OC)C(C)C)[nH]c1-c1ccc(-c2ccc(-c3cnc([C@@H]4CCCN4C(=O)[C@@H](NC(=O)OC)C(C)C)[nH]3)cc2)cc1 [OL15] | 0.001 to 0.01 | –
COC(=O)NC(C(=O)N1[C@@H]2C[C@@H]2C[C@H]1c1nc(-c2ccc(-c3ccc(-c4nc([C@@H]5C[C@H]6C[C@H]6N5C(=O)[C@H](NC(=O)OC)[C@H]5CCCOC5)[nH]c4Cl)cc3)cc2)c(Cl)[nH]1)[C@@H]1CCCOC1 (stereo partly drawn) [ZY3, dimethyl(R,1R,1′R)-2,2′-((1R,1′R,3S,3′S,5R,5′R)-3,3′-(4,4′-(biphenyl-4,4′-diyl)bis(5-chloro-1H-imidazole-4,2-diyl))bis(2-azabicyclo[3.1.0]hexane-3,2-diyl))bis(2-oxo-1-((R)-tetrahydro-2H-pyran-3-yl)ethane-2,1-diyl)dicarbamate] | 0.001 to 0.01 | –
COC(=O)N[C@H](C(=O)N1CCC[C@H]1c1nc(-c2ccc(-c3ccc(-c4nc([C@@H]5CCCN5C(=O)[C@@H](NC(=O)OC)C(C)C)[nH]c4I)cc3)cc2)c[nH]1)C(C)C [JLR-2] | 0.001 to 0.01 | –
COCC[C@H](NC(=O)OC)C(=O)N1[C@@H]2C[C@@H]2C[C@H]1c1nc(-c2ccc(-c3ccc(-c4nc([C@@H]5C[C@H]6C[C@H]6N5C(=O)[C@H](CCOC)NC(=O)OC)[nH]c4Cl)cc3)cc2)c[nH]1 [ZY8] | 0.001 to 0.01 | –
COC(=O)N[C@H](C(=O)N1[C@@H]2C[C@@H]2C[C@H]1c1nc(-c2ccc(-c3ccc(-c4nc([C@@H]5C[C@H]6C[C@H]6N5C(=O)[C@@H](NC(=O)OC)C5CCOCC5)[nH]c4F)cc3)cc2)c(F)[nH]1)C1CCOCC1 [DSTL-7] | 0.001 to 0.01 | –
COC(=O)N[C@H](C(=O)N1CCC[C@H]1c1ncc(-c2ccc(-c3ccc(-c4[nH]c([C@@H]5CCCN5C(=O)[C@@H](NC(=O)OC)C(C)C)nc4C4CC4)cc3)cc2)[nH]1)C(C)C [OL7] | 0.001 to 0.01 | –
COC(=O)NC(C(=O)N1[C@@H]2C[C@@H]2C[C@H]1c1nc(-c2ccc(-c3ccc(-c4c[nH]c([C@@H]5C[C@H]6C[C@H]6N5C(=O)[C@@H](NC(=O)OC)[C@H]5CCCOC5)n4)cc3)cc2)c(Cl)[nH]1)[C@H]1CCCOC1 (stereo partly shown) [ZY6] | 0.01 to 0.1 | 0.0108
COCC[C@H](NC(=O)OC)C(=O)N1[C@@H]2C[C@@H]2C[C@H]1c1nc(-c2ccc(-c3ccc(-c4nc([C@@H]5C[C@H]6C[C@H]6N5C(=O)[C@H](CCOC)NC(=O)OC)[nH]c4Cl)cc3)cc2)c(Cl)[nH]1 [ZY7, dimethyl (2S,2′S)-1,1′-((1R,1′R,3S,3′S,5R,5′R)-3,3′-(4,4′-(biphenyl-4,4′-diyl)bis(5-chloro-1H-imidazole-4,2-diyl))bis(2-azabicyclo[3.1.0]hexane-3,2-diyl))bis(4-methoxy-1-oxobutane-2,1-diyl)dicarbamate] | 0.001 to 0.01 | –
COC(=O)N[C@H](C(=O)N1[C@@H]2C[C@@H]2C[C@H]1c1nc(-c2ccc(-c3ccc(-c4nc([C@@H]5C[C@H]6C[C@H]6N5C(=O)[C@@H](NC(=O)OC)[C@H]5CCCOC5)[nH]c4Cl)cc3)cc2)c(Cl)[nH]1)[C@H]1CCCOC1 [ZY2, dimethyl(R,1S,1′S)-2,2′-((1R,1′R,3S,3′S,5R,5′R)-3,3′-(4,4′-(biphenyl-4,4′-diyl)bis(5-chloro-1H-imidazole-4,2-diyl))bis(2-azabicyclo[3.1.0]hexane-3,2-diyl))bis(2-oxo-1-((R)-tetrahydro-2H-pyran-3-yl)ethane-2,1-diyl)dicarbamate] | 0.001 to 0.01 | –
COC(=O)N[C@H](C(=O)N1C[C@@H](C)C[C@H]1c1ncc(-c2ccc(-c3ccc(-c4[nH]c([C@@H]5C[C@H](C)CN5C(=O)[C@@H](NC(=O)OC)C5CCOCC5)nc4Cl)cc3)cc2)[nH]1)C1CCOCC1 [GW4] | 0.01 to 0.1 | –
COC(=O)N[C@H](C(=O)N1[C@@H]2C[C@@H]2C[C@H]1c1nc(-c2ccc(-c3ccc(-c4nc([C@@H]5C[C@H]6C[C@H]6N5C(=O)[C@@H](NC(=O)OC)C5CCOCC5)[nH]c4F)cc3)cc2)c[nH]1)C1CCOCC1 [DSTL-6] | 0.001 to 0.01 | –
COC(=O)N[C@H](C(=O)N1CCC[C@H]1c1ncc(-c2ccc(-c3ccc(-c4[nH]c([C@@H]5CCCN5C(=O)[C@@H](NC(=O)OC)C(C)C)nc4-c4ccnn4C)cc3)cc2)[nH]1)C(C)C [OL19] | 0.01 to 0.1 | –
COC(=O)N[C@@H](C(=O)N1[C@@H]2C[C@@H]2C[C@H]1c1nc(-c2ccc(-c3ccc(-c4nc([C@@H]5C[C@H]6C[C@H]6N5C(=O)[C@H](NC(=O)OC)[C@@H]5CCCOC5)[nH]c4Cl)cc3)cc2)c(Cl)[nH]1)[C@@H]1CCCOC1 [ZY4, dimethyl(S,1R,1′R)-2,2′-((1R,1′R,3S,3′S,5R,5′R)-3,3′-(4,4′-(biphenyl-4,4′-diyl)bis(5-chloro-1H-imidazole-4,2-diyl))bis(2-azabicyclo[3.1.0]hexane-3,2-diyl))bis(2-oxo-1-((S)-tetrahydro-2H-pyran-3-yl)ethane-2,1-diyl)dicarbamate] | 0.001 to 0.01 | –

Source: patent publication US8377980B2, “Hepatitis C virus inhibitors” (Bristol-Myers Squibb Company, priority 2009, dated 2013)
